# Assay results taken from the supplement of paper PMC10011410.
# ± gives the standard deviation of the averaged measurements.
# Columns and labels:
# U-2 OS [1] = assay: intracellular GSH:GSSG ratio (calculated); higher = more reduced glutathione pool; details: 24 h
# How it was run: (§1)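 Viability was assessed with CellTiter-Glo, and total glutathione and GSSG with GSH/GSSG-Glo, on separate plates by luminescence. The U-2 OS cells, seeded at 750 per well in white low-volume 384-well plates, were exposed 24 h later to most compounds at 20, 10 and 5 μM in 0.4% DMSO for 24 h at 37 °C. Corrected values from five replicate plates are expressed relative to vehicle or as a GSH:GSSG ratio.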
# U-2 OS [2] = assay: cell viability (CellTiter-Glo) relative to DMSO (% of control); higher = more viable; details: 24 h
# How it was run: as §1
# U-2 OS [3] = assay: total intracellular glutathione (GSH + GSSG) relative to DMSO (% of control); higher = more glutathione; details: 24 h
# How it was run: as §1
# U-2 OS [4] = assay: cell painting activity score (Mahalanobis distance from DMSO wells); higher = stronger morphological phenotype; details: 24 h
# How it was run: (§2)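 In this cell painting assay, roughly 1,500 U-2 OS cells per well in 384-well plates were pin-tool treated at 37 °C for 24 h, typically at six 2-fold steps from 20 μM down to 625 nM. Cells were stained with MitoTracker, concanavalin A, phalloidin, wheat germ agglutinin, Hoechst and SYTO 14, imaged on an Opera Phenix, and analysed in CellProfiler with normalization to same-plate DMSO cells. Reported values are means of four replicate plates, with the activity score defined as the Mahalanobis distance from DMSO wells and cell count defined relative to DMSO wells.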
# U-2 OS [5] = assay: relative cell count vs DMSO (cell painting) (fraction of DMSO control); higher = more cells remaining (less cytotoxic); details: 24 h
# How it was run: as §2
# U-2 OS [6] = assay: AUC of culture confluence over time (live-cell imaging) (AUC (confluence % x time)); higher = more confluent culture (less growth inhibition)
# How it was run: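 Using an Incucyte S3 with a 10x objective, confluence of U-2 OS cells was imaged every 4 h for up to 60 h at 37 °C. The cells had been seeded at 750 per well in 384-well plates in F-12K medium with 10% FBS and treated by pin tool 24 h later, most compounds at 20, 10 and 5 μM with 0.2% DMSO. The value given is the area under the confluence-versus-time curve.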
SMILES,intracellular GSH:GSSG ratio (U-2 OS [1]; 5 µM),intracellular GSH:GSSG ratio (U-2 OS [1]; 10 µM),intracellular GSH:GSSG ratio (U-2 OS [1]; 20 µM),cell viability (U-2 OS [2]; 5 µM),cell viability (U-2 OS [2]; 10 µM),cell viability (U-2 OS [2]; 20 µM),total intracellular glutathione (U-2 OS [3]; 5 µM),total intracellular glutathione (U-2 OS [3]; 10 µM),total intracellular glutathione (U-2 OS [3]; 20 µM),cell painting activity score (U-2 OS [4]; 0.625 µM),cell painting activity score (U-2 OS [4]; 1.25 µM),cell painting activity score (U-2 OS [4]; 2.5 µM),cell painting activity score (U-2 OS [4]; 5 µM),cell painting activity score (U-2 OS [4]; 10 µM),cell painting activity score (U-2 OS [4]; 20 µM),relative cell count (U-2 OS [5]; 0.625 µM),relative cell count (U-2 OS [5]; 1.25 µM),relative cell count (U-2 OS [5]; 2.5 µM),relative cell count (U-2 OS [5]; 5 µM),relative cell count (U-2 OS [5]; 10 µM),relative cell count (U-2 OS [5]; 20 µM),AUC of culture confluence over time (U-2 OS [6]; 5 µM),AUC of culture confluence over time (U-2 OS [6]; 10 µM),AUC of culture confluence over time (U-2 OS [6]; 20 µM)
Cc1cc(-c2ccccc2)cc(C(=O)NNS(=O)(=O)c2ccccc2)c1F,37,26,29,109 ± 6,101 ± 7.7,98.9 ± 2.5,124 ± 13,109 ± 5.4,110 ± 4.2,6.33,7.18,6.97,6.92,8.27,8.87,0.914,0.965,0.931,0.965,0.952,0.966,52.8,51.6,46.7
c1ccc(-c2noc(NC3CCCC3)n2)cc1,28.5,30.3,26,95.5 ± 6.9,101 ± 8.9,97 ± 6.5,103 ± 5.1,103 ± 10,107 ± 7.1,2.72,2.85,2.97,3.02,2.62,3.1,1.03,1.02,1.06,1.05,1.07,1.06,44,42.5,44.2
C=CC(=O)Nc1ccc(CN2C(=O)N(c3cc(OC)cc(OC)c3)Cc3cnc(Nc4ccc(N5CCN(C)CC5)cc4)nc32)cc1,13.6,16.7,12.9,91 ± 4.1,79.2 ± 3.3,69.2 ± 8.3,96.1 ± 3.3,93.1 ± 5,98.9 ± 4.6,6.58,8.57,8.77,10.2,12.1,22.1,0.983,0.946,0.955,0.951,0.83,0.673,44.2,37.3,27.8
CNC(=O)Nc1ccc2c(c1)CC[C@@]21OC(=O)N(CC(=O)N(Cc2ccc(F)cc2)[C@@H](C)C(F)(F)F)C1=O,27.9,31.4,30.9,93.1 ± 1.9,83.6 ± 4.3,85.3 ± 5,81.7 ± 3.5,74.9 ± 6.2,79 ± 7.5,8.32,8.2,8.22,8.54,9.44,10.2,1.04,0.976,1.04,1.02,1.05,1,44.7,44,42.6
O=[N+]([O-])c1cc(Br)c2nsnc2c1Sc1ncnc2nc[nH]c12,9.74,2.76,4.35,29.6 ± 6.5,6.03 ± 3.7,0.936 ± 0.27,56.4 ± 8.3,34.6 ± 12,7.7 ± 3.1,5.04,8.02,7.08,16.2,17.9,17.8,0.89,0.788,0.814,0.205,0.0623,0.0543,12.5,14.1,18
O=C(CCCCCCC(=O)Nc1ccccc1)NO,8.04,6.39,4.82,55.2 ± 5.3,49.6 ± 3,44 ± 2,60.5 ± 3.5,47.6 ± 4.1,39.5 ± 5.2,9.26,11.1,12,12,17.1,14.8,1.01,0.936,0.838,0.776,0.491,0.438,20.3,17.9,18.6
CCN1CCN(c2ccc3nsnc3c2[N+](=O)[O-])CC1,16.2,18.8,13.3,105 ± 5.4,103 ± 4.1,106 ± 5.4,100 ± 6.2,98.1 ± 3.7,91.3 ± 3.3,3.95,4.39,4.69,6.21,4.95,5.29,0.938,0.946,0.945,0.908,0.929,0.955,45,46.2,42.9
Cc1cc(NC(=O)c2cccc(NC(=O)/C=C/CN(C)C)c2)ccc1Nc1nccc(-c2cccnc2)n1,23.3,21,8.13,102 ± 7.2,98.9 ± 2.7,78.6 ± 5.4,93.9 ± 3.6,94.7 ± 6.5,72.6 ± 3.4,10.3,11.4,11,10.8,11.1,13,0.888,0.863,0.841,0.839,0.742,0.425,45.6,31.1,15.2
